In patent US20250228239A1, “MOLECULES HAVING PESTICIDAL UTILITY, AND INTERMEDIATES, COMPOSITIONS, AND PROCESSES, RELATED THERETO” (priority 2024, published 2025):

What was measured:
[1] = system: Beet Armyworm (Spodoptera exigua, LAPHEG); assay: Bioassays on Beet Armyworm (BAW), 128-well diet tray assay; assay type: in vivo; settings: Spodoptera exigua; Beet Armyworm; rating class; read-out: BAW
How it was run: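 Test molecule was dissolved in 90:10 acetone-water and applied at 50 μg/cm^2 onto artificial diet in eight wells, then dried. Second instar larvae, one to five per well, were added, and trays were kept vented at 25° C. with a 14:10 photoperiod for five to seven days before mortality was recorded.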

[2] = system: Cabbage Looper (Trichoplusia ni, TRIPNI); assay: Bioassays on Cabbage Looper (CL), 128-well diet tray assay; assay type: in vivo; settings: Trichoplusia ni; Cabbage Looper; rating class; read-out: CL
How it was run: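 Second-instar larvae (1–5 per well) placed on artificial diet surface-treated with 50 μg/cm^2 test molecule applied in 90:10 acetone-water and dried. Held at 25° C., 14:10 light-dark, for five to seven days. Percent mortality scored per well and averaged over eight wells.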

Row | Structure (SMILES) | pest or weed control at 50 µg/cm2 [1] | pest or weed control at 50 µg/cm2 [2]
1 | CC(=O)Nc1c(F)ccc(NC(=O)c2cc(NC(=O)[C@H]3[C@H](c4cc(Cl)cc(Cl)c4)C3(Cl)Cl)cc(F)c2Cl)c1F [F1502, N-(3-Acetamido-2,4-difluorophenyl)-2-chloro-5-((1R,3R)-2,2-dichloro-3-(3,5-dichlorophenyl)cyclopropane-1-carboxamido)-3-fluorobenzamide] | 50 to 100% | 50 to 100%
2 | O=C(Nc1ccc(F)c(NC(=O)C2CCO2)c1F)c1cc(NC(=O)[C@H]2[C@H](c3ccc(F)c(C(F)(F)F)c3)C2(Cl)Cl)ccc1Cl (stereo partly drawn) [F1503, N-(3-(2-Chloro-5-((1R,3R)-2,2-dichloro-3-(4-fluoro-3-(trifluoromethyl)phenyl)cyclopropane-1-carboxamido)benzamido)-2,6-difluorophenyl)oxetane-2-carboxamide] | 50 to 100% | 50 to 100%
3 | CC(=O)Nc1c(F)ccc(NC(=O)c2cc(NC(=O)[C@H]3[C@H](c4cc(Cl)c(Cl)c(Cl)c4)C3(Cl)Cl)cc(F)c2Cl)c1F [F1504, N-(3-Acetamido-2,4-difluorophenyl)-2-chloro-5-((1R,3R)-2,2-dichloro-3-(3,4,5-trichlorophenyl)cyclopropane-1-carboxamido)-3-fluorobenzamide] | 50 to 100% | 50 to 100%
4 | Nc1c(F)ccc(NC(=O)c2c(Cl)ccc(NC(=O)[C@H]3[C@H](c4ccc(F)c(Cl)c4)C3(Cl)Cl)c2F)c1F [F1508, N-(3-Amino-2,4-difluorophenyl)-6-chloro-3-((1R,3R)-2,2-dichloro-3-(3-chloro-4-fluorophenyl)cyclopropane-1-carboxamido)-2-fluorobenzamide] | 50 to 100% | 50 to 100%
5 | O=C(Nc1cc(NC(=O)C(F)F)c(F)cc1F)c1cc(NC(=O)[C@H]2[C@H](c3ccc(Cl)c(Cl)c3)C2(Cl)Cl)ccc1F [F1509, 5-((1R,3R)-2,2-Dichloro-3-(3,4-dichlorophenyl)cyclopropane-1-carboxamido)-N-(5-(2,2-difluoroacetamido)-2,4-difluorophenyl)-2-fluorobenzamide] | 50 to 100% | 50 to 100%
6 | O=C(Nc1c(F)ccc(NC(=O)C(F)F)c1F)c1cc(NC(=O)[C@H]2[C@H](c3ccc(Cl)c(Cl)c3)C2(Cl)Cl)ccc1F [F1512, 5-((1R,3R)-2,2-Dichloro-3-(3,4-dichlorophenyl)cyclopropane-1-carboxamido)-N-(3-(2,2-difluoroacetamido)-2,6-difluorophenyl)-2-fluorobenzamide] | 50 to 100% | 50 to 100%
7 | O=C(Nc1c(F)ccc(NC(=O)C(F)(F)F)c1F)c1cc(NC(=O)[C@H]2[C@H](c3ccc(Cl)c(Cl)c3)C2(Cl)Cl)ccc1F [F1513, 5-((1R,3R)-2,2-Dichloro-3-(3,4-dichlorophenyl)cyclopropane-1-carboxamido)-N-(2,6-difluoro-3-(2,2,2-trifluoroacetamido)phenyl)-2-fluorobenzamide] | 50 to 100% | 50 to 100%
8 | CC(=O)Nc1ccc(F)c(NC(=O)c2cc(NC(=O)[C@H]3[C@H](c4ccc(Cl)c(Cl)c4)C3(Cl)Cl)ccc2F)c1F [F1514, N-(3-Acetamido-2,6-difluorophenyl)-5-((1R,3R)-2,2-dichloro-3-(3,4-dichlorophenyl)cyclopropane-1-carboxamido)-2-fluorobenzamide] | 50 to 100% | 50 to 100%
9 | CC(=O)Nc1ccc(F)c(NC(=O)c2cc(NC(=O)[C@H]3[C@H](c4cc(Cl)c(Cl)c(Cl)c4)C3(Cl)Cl)ccc2Cl)c1F [F1515, N-(3-Acetamido-2,6-difluorophenyl)-2-chloro-5-((1R,3R)-2,2-dichloro-3-(3,4,5-trichlorophenyl)cyclopropane-1-carboxamido)benzamide] | 50 to 100% | 50 to 100%
10 | O=C(Nc1c(F)ccc(NC(=O)C(F)(F)F)c1F)c1cc(NC(=O)[C@H]2[C@H](c3cc(Cl)c(Cl)c(Cl)c3)C2(Cl)Cl)ccc1Cl [F1516, 2-Chloro-5-((1R,3R)-2,2-dichloro-3-(3,4,5-trichlorophenyl)cyclopropane-1-carboxamido)-N-(2,6-difluoro-3-(2,2,2-trifluoroacetamido)phenyl)benzamide] | 50 to 100% | 50 to 100%
11 | CC(=O)Nc1cc(NC(=O)c2cc(NC(=O)[C@H]3[C@H](c4cc(Cl)c(Cl)c(Cl)c4)C3(Cl)Cl)ccc2Cl)c(F)cc1F [F1517, N-(5-Acetamido-2,4-difluorophenyl)-2-chloro-5-((1R,3R)-2,2-dichloro-3-(3,4,5-trichlorophenyl)cyclopropane-1-carboxamido)benzamide] | 50 to 100% | 50 to 100%
12 | O=C(Nc1cc(NC(=O)C(F)F)c(F)cc1F)c1cc(NC(=O)[C@H]2[C@H](c3cc(Cl)c(Cl)c(Cl)c3)C2(Cl)Cl)ccc1Cl [F1518, 2-Chloro-5-((1R,3R)-2,2-dichloro-3-(3,4,5-trichlorophenyl)cyclopropane-1-carboxamido)-N-(5-(2,2-difluoroacetamido)-2,4-difluorophenyl)benzamide] | 50 to 100% | 50 to 100%
13 | O=C(Nc1cc(NC(=O)C(F)(F)F)c(F)cc1F)c1cc(NC(=O)[C@H]2[C@H](c3cc(Cl)c(Cl)c(Cl)c3)C2(Cl)Cl)ccc1Cl [F1519, 2-Chloro-5-((1R,3R)-2,2-dichloro-3-(3,4,5-trichlorophenyl)cyclopropane-1-carboxamido)-N-(2,4-difluoro-5-(2,2,2-trifluoroacetamido)phenyl)benzamide] | 50 to 100% | 50 to 100%
14 | CC(=O)Nc1ccc(F)c(NC(=O)c2cc(NC(=O)[C@H]3[C@H](c4cc(Cl)c(Cl)c(Cl)c4)C3(Cl)Cl)cc(F)c2Cl)c1F [F1520, N-(3-Acetamido-2,6-difluorophenyl)-2-chloro-5-((1R,3R)-2,2-dichloro-3-(3,4,5-trichlorophenyl)cyclopropane-1-carboxamido)-3-fluorobenzamide] | 50 to 100% | 50 to 100%
15 | CC(=O)Nc1ccc(F)c(NC(=O)c2cc(NC(=O)[C@H]3[C@H](c4ccc(Cl)c(Cl)c4)C3(Cl)Cl)cc(F)c2Cl)c1F [F1522, N-(3-Acetamido-2,6-difluorophenyl)-2-chloro-5-((1R,3R)-2,2-dichloro-3-(3,4-dichlorophenyl)cyclopropane-1-carboxamido)-3-fluorobenzamide] | 50 to 100% | 50 to 100%
16 | CC(=O)Nc1ccc(F)c(NC(=O)c2cc(NC(=O)[C@H]3[C@H](c4ccc(Cl)c(Cl)c4)C3(Cl)Cl)cc(C)c2Cl)c1F [F1523, N-(3-Acetamido-2,6-difluorophenyl)-2-chloro-5-((1R,3R)-2,2-dichloro-3-(3,4-dichlorophenyl)cyclopropane-1-carboxamido)-3-methylbenzamide] | 50 to 100% | 50 to 100%
17 | CC(=O)Nc1ccc(F)c(NC(=O)c2cc(NC(=O)[C@H]3[C@H](c4cc(Cl)c(Cl)c(Cl)c4)C3(Cl)Cl)cc(C)c2Cl)c1F [F1524, N-(3-Acetamido-2,6-difluorophenyl)-2-chloro-5-((1R,3R)-2,2-dichloro-3-(3,4,5-trichlorophenyl)cyclopropane-1-carboxamido)-3-methylbenzamide] | 50 to 100% | 50 to 100%
18 | CC(=O)Nc1ccc(F)c(NC(=O)c2cc(NC(=O)[C@H]3[C@H](c4ccc(F)c(C(F)(F)F)c4)C3(Cl)Cl)cc(C)c2Cl)c1F [F1525, N-(3-Acetamido-2,6-difluorophenyl)-2-chloro-5-((1R,3R)-2,2-dichloro-3-(4-fluoro-3-(trifluoromethyl)phenyl)cyclopropane-1-carboxamido)-3-methylbenzamide] | 50 to 100% | 50 to 100%
19 | O=C(Nc1ccc(F)c(NC(=O)C(F)F)c1F)c1cc(NC(=O)[C@H]2[C@H](c3cc(Cl)c(Cl)c(Cl)c3)C2(Cl)Cl)ccc1F [F1527, 5-((1R,3R)-2,2-Dichloro-3-(3,4,5-trichlorophenyl)cyclopropane-1-carboxamido)-N-(3-(2,2-difluoroacetamido)-2,4-difluorophenyl)-2-fluorobenzamide] | 50 to 100% | 50 to 100%
20 | CC(=O)Nc1c(F)ccc(NC(=O)c2cc(NC(=O)[C@H]3[C@H](c4cc(Cl)c(Cl)c(Cl)c4)C3(Cl)Cl)ccc2Cl)c1F [F1532, N-(3-Acetamido-2,4-difluorophenyl)-2-chloro-5-((1R,3R)-2,2-dichloro-3-(3,4,5-trichlorophenyl)cyclopropane-1-carboxamido)benzamide] | 50 to 100% | 50 to 100%
21 | O=C(Nc1ccc(F)c(NC(=O)C(F)(F)F)c1F)c1cc(NC(=O)[C@H]2[C@H](c3cc(Cl)c(Cl)c(Cl)c3)C2(Cl)Cl)ccc1Cl [F1533, 2-Chloro-5-((1R,3R)-2,2-dichloro-3-(3,4,5-trichlorophenyl)cyclopropane-1-carboxamido)-N-(2,4-difluoro-3-(2,2,2-trifluoroacetamido)phenyl)benzamide] | 50 to 100% | 50 to 100%
22 | O=C(Nc1c(F)ccc(NC(=O)C(F)(F)C(F)F)c1F)c1cc(NC(=O)[C@H]2[C@H](c3cc(Cl)c(Cl)c(Cl)c3)C2(Cl)Cl)ccc1Cl [F1534, 2-Chloro-5-((1R,3R)-2,2-dichloro-3-(3,4,5-trichlorophenyl)cyclopropane-1-carboxamido)-N-(2,6-difluoro-3-(2,2,3,3-tetrafluoropropanamido)phenyl)benzamide] | 50 to 100% | 50 to 100%
